Source: patent US10670605B2, “Cysteine reactive probes and uses thereof” (The Scripps Research Institute, priority 2015, dated 2020)
Structures can show the parent of a compound that is named as a salt.

Tests used:
[1] = target: PGPEPI C149 (Q9NXJ5) (Homo sapiens, UniProt Q9NXJ5); test: Competitive isoTOP-ABPP in situ; assay type: cell-based; conditions: fragment 4 at 100 μM, MDA-MB-231 cells
[2] = target: IMPACT C195 (Q9P2X3) (Homo sapiens, UniProt Q9P2X3); test: Competitive isoTOP-ABPP in situ; assay type: cell-based; conditions: fragment 4 at 100 μM, MDA-MB-231 cells
[3] = target: RAI14 C973 (Q9P0K7) (Homo sapiens, UniProt Q9P0K7); test: Competitive isoTOP-ABPP in situ; assay type: cell-based; conditions: fragment 4 at 100 μM, MDA-MB-231 cells
[4] = target: NIT1 C165 (Q86X76) (Homo sapiens, UniProt Q86X76); test: Competitive isoTOP-ABPP in situ; assay type: cell-based; conditions: fragment 4 at 100 μM, MDA-MB-231 cells
[5] = tested on: primary human T cells
Method: Cells were transferred to a round bottom 96-well plate (0720095; Fisher Scientific), harvested by centrifugation (500 g, 3 min, 4° C.), washed with PBS, and stained with LIVE/DEAD fixable cell stain (L23105; ThermoFisher) according to the manufacturer's instructions. Briefly, one vial of LIVE/DEAD stain was resuspended in 50 uL of DMSO and added to 20 mL of PBS. To each well of the 96-well plate was added 200 μL of the stain, and the cells were incubated on ice for 30 min in the dark. After this time, cells were pelleted and washed once with PBS, then stained for cell surface antigens.

[6] = tested on: primary human T cells; test: T cell activation markers CD25 and CD69 (flow cytometry); assay type: cell-based
Method: 96-well plates were coated with anti-CD3 (1:200; BioXcell) and anti-CD28 (1:500; 302933; BioLegend) in PBS (100 μL/well) overnight at 4° C. The plates were then washed twice with PBS and to each well was added 500,000 primary T cells in 100 μL of RPMI supplemented with 10% FBS, glutamine, and Pen-Strep. Cells were then treated with 100 μL of media containing compound at the indicated concentrations (final well volume of 200 μL). Cells were left at 37° C. in a 5% CO2 incubator for the indicated periods of time and harvested by centrifugation (500 g, 8 min, 4° C.), followed by washing with PBS.
Flow cytometry analysis of cell surface antigens was performed with the following antibodies: Pacific Blue-conjugated anti-CD8 (1:25 dilution; clone RPA-T8; BD Biosciences), APC-conjugated anti-CD4 (1:25 dilution; clone RPA-T4; eBioscience), phycoerythrin-conjugated anti-CD25 (1:25 dilution; clone BC96; eBioscience or PC61; BioLegend (PKCθ studies)), FITC-conjugated anti-CD69 (1:25 dilution; clone FN50; eBioscience). All antibodies were diluted in 1% FBS in PBS, and 50 μL of the stain solution was added to each well. […] Flow cytometry acquisition was performed with BD FACSDivam-driven BD™ LSR II flow cytometer (Becton, Dickinson and Company). Data was then analyzed with FlowJo software (Treestar Inc.). Data represent mean±SE for four-five experiments per group.

[7] = tested on: primary mouse splenocytes; conditions: wild type and Nrf2(-/-) splenocytes; cited from earlier work
[8] = target: Cys residues in primary human T cells (Homo sapiens, UniProt Q8N2G8); test: isoTOP-ABPP of compound-treated primary human T cells; assay type: cell-based; conditions: GHDC C502 (Q8N2G8)
[9] = target: T1, MLTK (ZAK) C22 (Homo sapiens, UniProt Q9NYL2); test: Blockade of ibrutinib-derived probe 59 labeling of MLTK (gel-based ABPP); assay type: binding
T1 construct: expressed in transfected cells
Method: CuAAC was performed with 20 μM rhodamine-azide (50× stock in DMSO), 1 mM tris(2-carboxyethyl)phosphine hydrochloride (TCEP; fresh 50× stock in water, final concentration=1 mM), ligand (17× stock in DMSO:t-butanol 1:4, final concentration=100 μM) and 1 mM CuSO4 (50× stock in water, final concentration=1 mM). […] Quenched reactions were analyzed by SDS-PAGE and visualized by in-gel fluorescence. […] For MLTK, HEK 293T cells stably overexpressing MTLK^2 were treated with the indicated fragment electrophiles for 1 h, followed by labeling with 59 (1 μl, of 125 μM, final concentration=5 μM) for 1 h. These were followed by CuAAC conjugation to rhodamine-azide and evaluation by SDS-PAGE as described above.

[10] = target: RNF214 C655 (Q8ND24) (Homo sapiens, UniProt Q8ND24); test: Competitive isoTOP-ABPP in situ; assay type: cell-based; conditions: fragment 2 at 200 μM, MDA-MB-231 cells
[11] = target: THAP11 C48 (Q96EK4) (Homo sapiens, UniProt Q96EK4); test: Competitive isoTOP-ABPP in situ; assay type: cell-based; conditions: fragment 2 at 200 μM, MDA-MB-231 cells
[12] = target: T2, PRMT1 (Homo sapiens, UniProt Q99873); test: PRMT1 in vitro methylation assay (histone 4, 3H-SAM); assay type: biochemical; conditions: pre-treatment with fragment 1 h
T2 construct: Full length PRMT1 subcloned into pET45b (+) (Novagen) was previously generated by the Cravatt lab; inferred from Ni-NTA purification and the pET45b vector; made in house; host or cells: E. coli BL21(DE3)
Method: PRMT1 assays were conducted as described in Weerapana et al. Nature 468:790-795 (2010). Recombinant human PRMT1 (0.85 μM, wild type or C101S mutant) in 25 μL methylation buffer (20 mM Tris, pH 8.0, 200 mM NaCl, 0.4 mM EDTA) was pre-incubated with indicated fragments for 1 h and methylation activity was monitored after addition of […] of recombinant histone 4 (NEB, M2504S) and ^3H-SAM (2 μCi). Reactions were further incubated for 60 min at ambient temperature and stopped with 4×SDS sample buffer. SDS-PAGE gels were fixed with 10% acetic acid/10% methanol (v/v), washed, and incubated with Amplify reagent (Amersham) before exposing to film at −80° C. for 3 days.

[13] = anti-CD3, anti-CD28 stimulation, 8 h

Cys residues in primary human T cells, sequence (Q8N2G8 18-530): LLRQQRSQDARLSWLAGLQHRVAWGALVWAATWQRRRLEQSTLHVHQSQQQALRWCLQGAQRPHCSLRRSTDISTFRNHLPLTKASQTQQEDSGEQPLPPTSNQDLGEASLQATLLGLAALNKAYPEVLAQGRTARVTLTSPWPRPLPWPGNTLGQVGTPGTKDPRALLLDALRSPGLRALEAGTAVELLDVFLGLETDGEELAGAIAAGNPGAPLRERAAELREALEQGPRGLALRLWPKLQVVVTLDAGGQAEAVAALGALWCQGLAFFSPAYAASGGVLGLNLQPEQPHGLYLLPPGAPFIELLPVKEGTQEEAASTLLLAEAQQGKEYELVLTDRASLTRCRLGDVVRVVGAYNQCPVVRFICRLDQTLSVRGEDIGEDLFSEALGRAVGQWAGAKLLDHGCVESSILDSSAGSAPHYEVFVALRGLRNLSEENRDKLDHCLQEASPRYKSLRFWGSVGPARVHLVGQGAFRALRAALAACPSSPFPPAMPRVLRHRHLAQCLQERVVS
RAI14 C973 (Q9P0K7), sequence (Q9P0K7 whole entry, the tested form may be a part): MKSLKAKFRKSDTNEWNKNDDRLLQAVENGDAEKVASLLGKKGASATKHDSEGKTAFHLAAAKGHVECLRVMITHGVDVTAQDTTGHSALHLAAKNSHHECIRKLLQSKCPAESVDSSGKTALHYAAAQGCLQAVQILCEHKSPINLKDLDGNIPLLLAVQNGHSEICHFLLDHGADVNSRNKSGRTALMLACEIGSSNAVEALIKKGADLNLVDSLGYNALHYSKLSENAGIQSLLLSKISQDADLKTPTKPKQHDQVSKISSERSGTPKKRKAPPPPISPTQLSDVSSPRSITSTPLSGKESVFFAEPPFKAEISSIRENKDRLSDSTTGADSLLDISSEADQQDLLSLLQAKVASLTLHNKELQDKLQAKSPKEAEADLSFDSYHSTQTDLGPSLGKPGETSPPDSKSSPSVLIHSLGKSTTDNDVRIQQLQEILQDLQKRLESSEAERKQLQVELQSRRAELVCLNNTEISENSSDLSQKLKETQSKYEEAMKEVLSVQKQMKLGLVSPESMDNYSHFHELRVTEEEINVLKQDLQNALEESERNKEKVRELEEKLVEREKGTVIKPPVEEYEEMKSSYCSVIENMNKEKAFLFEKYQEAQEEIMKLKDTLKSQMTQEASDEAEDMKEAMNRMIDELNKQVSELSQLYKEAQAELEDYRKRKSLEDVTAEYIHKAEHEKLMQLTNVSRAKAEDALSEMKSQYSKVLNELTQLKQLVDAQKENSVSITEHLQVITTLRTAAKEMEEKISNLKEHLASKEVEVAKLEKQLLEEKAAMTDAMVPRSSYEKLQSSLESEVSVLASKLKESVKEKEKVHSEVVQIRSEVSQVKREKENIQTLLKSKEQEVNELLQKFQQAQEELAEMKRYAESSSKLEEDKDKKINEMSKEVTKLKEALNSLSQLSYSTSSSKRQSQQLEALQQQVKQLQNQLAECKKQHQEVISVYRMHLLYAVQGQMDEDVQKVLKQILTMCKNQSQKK
RNF214 C655 (Q8ND24), sequence (Q8ND24 whole entry, the tested form may be a part): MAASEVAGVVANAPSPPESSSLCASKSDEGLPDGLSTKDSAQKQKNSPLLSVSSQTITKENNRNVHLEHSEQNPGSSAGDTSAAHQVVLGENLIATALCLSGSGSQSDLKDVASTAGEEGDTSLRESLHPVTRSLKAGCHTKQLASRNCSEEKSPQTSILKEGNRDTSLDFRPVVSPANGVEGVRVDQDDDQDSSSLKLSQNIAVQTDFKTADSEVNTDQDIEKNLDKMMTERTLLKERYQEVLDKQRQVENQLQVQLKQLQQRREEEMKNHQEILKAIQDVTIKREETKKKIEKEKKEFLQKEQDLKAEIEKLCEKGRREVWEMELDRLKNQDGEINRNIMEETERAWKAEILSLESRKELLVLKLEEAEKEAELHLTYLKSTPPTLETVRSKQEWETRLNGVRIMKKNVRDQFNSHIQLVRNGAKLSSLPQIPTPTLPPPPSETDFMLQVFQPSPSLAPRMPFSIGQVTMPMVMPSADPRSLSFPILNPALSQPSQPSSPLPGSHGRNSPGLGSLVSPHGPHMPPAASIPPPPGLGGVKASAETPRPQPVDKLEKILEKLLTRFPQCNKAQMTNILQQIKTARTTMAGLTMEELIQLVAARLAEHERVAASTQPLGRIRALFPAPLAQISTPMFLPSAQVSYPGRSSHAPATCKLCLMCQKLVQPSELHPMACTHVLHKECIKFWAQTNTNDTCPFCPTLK
IMPACT C195 (Q9P2X3), sequence (Q9P2X3 whole entry, the tested form may be a part): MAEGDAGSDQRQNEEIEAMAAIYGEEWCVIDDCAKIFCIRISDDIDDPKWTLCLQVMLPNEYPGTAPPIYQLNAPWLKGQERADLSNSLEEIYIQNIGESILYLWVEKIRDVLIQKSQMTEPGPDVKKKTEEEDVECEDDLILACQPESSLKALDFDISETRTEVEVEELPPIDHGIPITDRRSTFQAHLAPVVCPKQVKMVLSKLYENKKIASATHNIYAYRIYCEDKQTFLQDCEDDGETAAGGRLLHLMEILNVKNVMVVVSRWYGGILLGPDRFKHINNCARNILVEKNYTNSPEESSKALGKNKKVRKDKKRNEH
PGPEPI C149 (Q9NXJ5), sequence (Q9NXJ5 whole entry, the tested form may be a part): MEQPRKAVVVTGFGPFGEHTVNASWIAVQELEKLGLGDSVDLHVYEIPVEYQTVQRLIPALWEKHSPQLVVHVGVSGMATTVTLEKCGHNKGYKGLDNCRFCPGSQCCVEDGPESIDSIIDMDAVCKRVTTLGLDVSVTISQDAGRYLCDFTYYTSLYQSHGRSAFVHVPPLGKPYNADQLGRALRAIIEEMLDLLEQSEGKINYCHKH
THAP11 C48 (Q96EK4), sequence (Q96EK4 whole entry, the tested form may be a part): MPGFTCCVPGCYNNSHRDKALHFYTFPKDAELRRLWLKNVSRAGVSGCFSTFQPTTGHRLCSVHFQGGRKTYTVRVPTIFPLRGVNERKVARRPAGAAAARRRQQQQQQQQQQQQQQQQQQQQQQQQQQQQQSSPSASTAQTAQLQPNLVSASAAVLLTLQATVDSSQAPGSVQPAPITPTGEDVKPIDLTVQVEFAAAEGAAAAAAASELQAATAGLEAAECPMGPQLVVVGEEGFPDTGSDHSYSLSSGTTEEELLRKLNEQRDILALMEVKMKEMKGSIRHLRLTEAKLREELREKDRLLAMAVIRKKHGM
T2 sequence (Q99873 11-371 limits assumed): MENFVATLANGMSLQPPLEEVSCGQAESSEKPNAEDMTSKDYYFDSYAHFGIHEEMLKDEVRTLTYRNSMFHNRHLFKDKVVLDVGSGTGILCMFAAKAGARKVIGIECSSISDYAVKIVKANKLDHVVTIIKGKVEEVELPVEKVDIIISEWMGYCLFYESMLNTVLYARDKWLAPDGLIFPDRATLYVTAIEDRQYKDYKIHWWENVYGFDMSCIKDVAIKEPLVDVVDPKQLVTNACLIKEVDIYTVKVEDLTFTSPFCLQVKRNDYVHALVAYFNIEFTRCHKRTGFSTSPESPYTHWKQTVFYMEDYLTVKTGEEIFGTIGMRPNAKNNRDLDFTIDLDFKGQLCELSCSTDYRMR
T1 sequence (Q9NYL2 whole entry): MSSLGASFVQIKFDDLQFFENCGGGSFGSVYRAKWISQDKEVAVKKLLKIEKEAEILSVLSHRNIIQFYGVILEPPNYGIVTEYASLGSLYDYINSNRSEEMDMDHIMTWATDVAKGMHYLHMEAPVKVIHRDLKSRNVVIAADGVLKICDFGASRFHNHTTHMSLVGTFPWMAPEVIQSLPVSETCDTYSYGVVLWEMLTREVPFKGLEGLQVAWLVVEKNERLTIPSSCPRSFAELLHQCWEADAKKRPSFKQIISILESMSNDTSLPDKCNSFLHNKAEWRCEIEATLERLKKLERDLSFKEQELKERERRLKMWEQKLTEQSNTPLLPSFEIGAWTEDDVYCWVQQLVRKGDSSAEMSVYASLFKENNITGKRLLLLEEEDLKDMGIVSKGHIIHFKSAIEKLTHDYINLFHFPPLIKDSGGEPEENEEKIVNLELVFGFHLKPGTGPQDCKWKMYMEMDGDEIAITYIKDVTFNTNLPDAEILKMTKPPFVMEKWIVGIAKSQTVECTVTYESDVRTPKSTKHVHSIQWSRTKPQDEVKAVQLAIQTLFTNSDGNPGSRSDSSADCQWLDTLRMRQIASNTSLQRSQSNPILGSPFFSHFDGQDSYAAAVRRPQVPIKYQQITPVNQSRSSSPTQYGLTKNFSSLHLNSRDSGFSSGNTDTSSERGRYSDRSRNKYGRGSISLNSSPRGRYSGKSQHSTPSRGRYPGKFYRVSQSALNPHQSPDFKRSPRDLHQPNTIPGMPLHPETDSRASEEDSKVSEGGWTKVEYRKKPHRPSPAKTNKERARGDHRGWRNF
NIT1 C165 (Q86X76), sequence (Q86X76 14-327): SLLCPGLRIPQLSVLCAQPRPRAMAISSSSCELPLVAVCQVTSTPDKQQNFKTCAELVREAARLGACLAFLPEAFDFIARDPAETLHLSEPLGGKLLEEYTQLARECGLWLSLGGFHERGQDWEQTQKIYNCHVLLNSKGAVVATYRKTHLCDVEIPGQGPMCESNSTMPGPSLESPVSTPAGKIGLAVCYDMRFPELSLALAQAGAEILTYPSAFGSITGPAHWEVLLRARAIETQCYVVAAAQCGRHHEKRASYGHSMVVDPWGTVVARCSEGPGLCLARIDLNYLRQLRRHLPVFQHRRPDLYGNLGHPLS

Compound: COc1ccc(C2CC(c3cccs3)=NN2C(=O)CCl)cc1 (stereo not shown) [compound 4]
- isoTOP-ABPP reactivity profile (ratio) 4_100 μM_in-situ_231 [1]: 20.0
- isoTOP-ABPP reactivity profile (ratio) 4_100 μM_in-situ_231 [2]: 20.0
- isoTOP-ABPP reactivity profile (ratio) 4_100 μM_in-situ_231 [3]: 8.7
- isoTOP-ABPP reactivity profile (ratio) 4_100 μM_in-situ_231 [4]: 0.9

Compound: COC(=O)/C=C/C(=O)OC [DMF, dimethyl fumarate]
- T cell viability [5]: did not impair
- blockade of T cell activation ([6]; 10 μM): marginal/negligible
- blockade of T cell activation ([6]; 25 μM): partial
- blockade of T cell activation ([6]; 50 μM): near-complete inhibition
- expression of CD25 [6, 13]: blocked
- expression of CD69 [6, 13]: blocked
- inhibitory effect on T cell activation ([6]; drug added six hours after stimulation): completely ablated
- inhibitory effect on T cell activation ([6]; drug added two hours after stimulation): reduced
- pro-inflammatory cytokine release [7]: inhibits
- R value (DMSO/DMF) ([8]; DMF 50 μM 1h): 4.23
- R value (DMSO/DMF) ([8]; DMF 50 μM 2h): 20

Compound: O=C(CCl)Nc1cc(C(F)(F)F)cc(C(F)(F)F)c1 [compound 3]
- blockade of probe 59 labeling of MLTK (in words) [9]: inactive

Compound: COc1ccc2c(c1)CCCN2C(=O)CCl [compound 2]
- isoTOP-ABPP reactivity profile (ratio) 2_200 μM_in-situ_231 [10]: 6.5
- isoTOP-ABPP reactivity profile (ratio) 2_200 μM_in-situ_231 [11]: 7.9

Compound: Cn1cc(S(=O)(=O)N2CCOCC2)cc1C(=O)NC(=O)CCl [compound 11]
- PRMT1-catalyzed methylation of histone 4 [12]: inhibited
